Assays:
[1] = Anti-oxidation test (UV-induced peroxide formation); design: unit not given here; conditions: 0.005 g compound in 1 ml methyl linolate
Description: Comparative test on raspberry ketone was made in the same manner as above.

B16 melanoma cells = experiment: Melanogenesis inhibition test; assay type: cell-based; conditions: 72 hours; for Amount of melanin per cell (%): Theophylline containing medium, relative to blank
Description: B16 melanoma cells were inoculated in a 12 wells-plastic plate at a concentration of 2×10^4/well on MEM (Minimum Essential Medium). After 24 hours, the medium was changed to a Theophylline containing medium to which 4-(3′,4′-dihydroxyphenyl)-butane-2-one was added in the concentrations shown in Table 6. The cells were cultured for 72 hours and then treated with 10% TCA and ethanol/diethylether(=1/1). After counting the number of the cells, the cells were dissolved in an aqueous 1 mol/l sodium hydroxide solution containing dimethylsulfoxide in a concentration of 10%. Optical density at 475 nm (OD475) of the solution thus obtained was measured.

[2] = system: Free fatty cells from epididymis fatty tissues; experiment: Determination of lypolytic activity in free fatty cells; assay type: cell-based, Wister male rats; conditions: for degree of lypolysis promotion (%): 100 μg/ml test compound, 0.05 μg/ml norepinephrine, 37° C., 1 hour, fatty acids relative to control solution without compound (=100)
Description: The cells were added to a Hank's balanced solution containing 0.05 μg/ml of bovine serum albumin, 0.05 μg/ml of norepinephrine and 100 μg/ml of the present compound to be tested, and then allowed to react at 37° C. for 1 hour. Liberated fatty acids were extracted and quantitated with a copper reagent and a color developing reagent. Lypolytic activity was calculated according to the following equation. Lypolytic activity(%)=[A/B]×100, wherein A: amount of fatty acids in a sample solution, and B: that in a control solution without present compound. Subcutaneous Fat Decomposition Test

Structure (SMILES)	amount of peroxides formed by oxidation of methyl linolate ([1]; UVB 10 (J/cm^2))	amount of peroxides formed by oxidation of methyl linolate ([1]; UVB 30 (J/cm^2))	Amount of melanin per cell (%) (B16 melanoma cells; concentration 1 μg/l)	Amount of melanin per cell (%) (B16 melanoma cells; concentration 3 μg/l)	Amount of melanin per cell (%) (B16 melanoma cells; concentration 10 μg/l)	Amount of melanin per cell (%) (B16 melanoma cells; concentration 30 μg/l)	numbers of the cells (B16 melanoma cells; concentration range of Table 6 (up to 30 μg/l))	degree of lypolysis promotion (%) [2]	lypolytic activity compared with raspberry ketone of Comparative Example 1 ([2]; comparison in words)
CC(=O)CCc1ccc(O)c(O)c1 [4-(3′,4′-dihydroxyphenyl)-butane-2-one]	1.6	3.7	94.7	77.2	62.7	2.2	no difference	194.3 +/− 12.4%	significantly higher
CC(=O)CCc1ccc(O)cc1 [Raspberry ketone, reference compound]	30.2	42.5						142.0 +/− 6.8%	

From patent US7879347B2, “Dihydroxyphenyl compounds and glucoside compounds thereof” (KAO Corporation, priority 2001, dated 2011)
